Some test systems named below: DLD-1; DMS-273; HOP-18; KM-20L2; LXFL 529; M19-MEL; RXF 631; XF498.
Holding throughout (experiment): DTP human tumour cell line panel, 48 h

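Following 48 hours of exposure in 96-well plates, responses at five concentrations were used to interpolate endpoints linearly. GI50: concentration for 50% inhibition of growth.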 Active and inactive are the calls of the source. Cut-off read from the data, not from the text of the source: active = GI50 up to about 1.1 µM and inactive = higher.

In the case of `Cc1cc(Cl)ccc1NC(=O)C(=O)Cc1nc2ccccc2o1`, the GI50 in the assay on DLD-1, in the assay with DMS-273, in the assay on HOP-18, with KM-20L2, in the assay with LXFL 529 and in the assay with M19-MEL was > 100 µM (inactive) throughout. In addition, the GI50 in the assay on RXF 631 and in the assay on XF498 was > 100 µM (inactive) each time.
For the compound `O=C1c2ccccc2C(=O)N1C/C=N/NS(=O)(=O)c1ccc(Br)cc1`, the GI50 in the assay on DLD-1, in the assay with DMS-273, with HOP-18, in the assay with KM-20L2, in the assay on LXFL 529 and with M19-MEL was > 100 µM (inactive) throughout. Further, the GI50 with RXF 631 and in the assay with XF498 was > 100 µM (inactive) throughout.
For `O=C(Nc1nnc(S)[nH]1)C(=O)C(C(=O)c1ccc2ccccc2c1)C1OC(=O)c2ccccc21` (centres undefined), the GI50 in the assay on DLD-1 is 19.5 µM (inactive); with DMS-273, 25.5 µM (inactive); in the assay on HOP-18 it was 0.305 µM (active); in the assay with KM-20L2, 35.3 µM (inactive); in the assay on LXFL 529, 12.1 µM (inactive); in the assay on M19-MEL, 13.8 µM (inactive). In addition, the GI50 in the assay on RXF 631 is 21.8 µM (inactive); in the assay with XF498, 2.09 µM (inactive).

By GI50 is commonly meant the concentration at which growth is held to half of that of the control.

Values taken from ChEMBL document CHEMBL1201862, “PubChem BioAssay data set” (2004).
